According to ChEMBL document CHEMBL5325456, “5-(4-Hydroxyphenyl)-3H-1,2-dithiole-3-thione derivatives of brefeldin A: Design, synthesis and cytotoxicity in MDA-MB-231 human breast cancer cells” (Bioorg Med Chem, 2023):
The source made the active and inactive calls. The rule behind the calls is not given here.

Columns and labels:
[1] = system: MDA-MB-231; assay: Induction of cell cycle arrest in human MDA-MB-231 cells assessed as accumulation of cells at S phase at 82.5 nM incubated for 48 hrs by flow cytometry analysis (reference value: 36.51%); format: functional
[2] = system: MDA-MB-231; assay: Inhibition of cell adhesion in human MDA-MB-231 cells assessed as reduction in cell adhesion by measuring fluorescence intensity at 82.5 to 330 nM incubated for 48 hrs by flow cytometry analysis; format: functional, cell-based; conditions: dose 82.5-330 nM
[3] = system: MDA-MB-231; assay: Antiproliferative activity against human MDA-MB-231 cells assessed as reduction in cell viability incubated for 48 hrs by CCk-8 assay; format: functional, cell-based; conditions: MDA-MB-231, 48 h
[4] = system: MDA-MB-231; assay: Inhibition of cell migration in human MDA-MB-231 cells assessed as wound healing rate at 0.165 uM measured immediately by scratch wound healing assay (Rvb= 871.53 +/- 3.02 %); format: functional; set-up: scale not given: the % may be the effect or the level left
[5] = system: HepG2; assay: Antiproliferative activity against human HepG2 cells assessed as reduction in cell viability incubated for 48 hrs by CCk-8 assay; format: functional, cell-based; conditions: HepG2, 48 h
[6] = system: MDA-MB-231; assay: Inhibition of cell migration in human MDA-MB-231 cells assessed as wound healing rate at 82.5 nM measured for 24 hrs by scratch wound healing assay (Rvb= 230.22 +/- 32.21 %); format: functional; set-up: scale not given: the % may be the effect or the level left
[7] = system: Cell membrane; assay: Induction of mitochondrial membrane potential loss in human MDA-MB-231 cells assessed as proportion of MMP decreased cells at 82.5 nM and measured for 48 hrs by JC-1 staining based flow cytometry assay (reference value: 4.40%); format: subcellular; set-up: scale not given: the % may be the effect or the level left
[8] = Selectivity index, ratio of IC50 for antiproliferative activity against human L02 cells to IC50 for antiproliferative activity against human MDA-MB-231 cells; format: toxicity, cell-based; conditions: L02 cells and MDA-MB-231 cells, read-out: Ratio IC50
[9] = system: A-375; assay: Antiproliferative activity against human A-375 cells assessed as reduction in cell viability incubated for 48 hrs by CCk-8 assay; format: functional, cell-based; conditions: A-375, 48 h
[10] = system: MDA-MB-231; assay: Induction of DNA damage in human MDA-MB-231 cells assessed as tail DNA at 82.5 nM incubated for 48 hrs by Comet assay (reference value: 0.007 %); format: functional
[11] = system: MDA-MB-231; assay: Induction of cell cycle arrest in human MDA-MB-231 cells assessed as accumulation of cells at G2 phase at 82.5 nM incubated for 48 hrs by flow cytometry analysis (reference value: 16.05 %); format: functional

C[C@H]1CCC/C=C/[C@@H]2C[C@H](O)C[C@H]2[C@H](OC(=O)CCCC(=O)OCCOc2ccc(-c3cc(=S)ss3)cc2)/C=C/C(=O)O1
Activity [1]: 30.23% | inhibition [2]: Active | IC50 [3]: 330 nM | Activity [4]: 830.55% | IC50 [5]: 750 nM | Activity [6]: 383.42% | Activity [7]: 16.3% | selectivity ratio [8]: 5.3 | IC50 [9]: 1820 nM | Activity [10]: 20.49% | Activity [11]: 13.5%
